How the values were obtained:
[1] = (§1) The drug is tested on WLS-039 corresponding to human gut metagenome with ENA study accession number: PRJEB37062 and ENA sample accession number: ERS12561746 for biotransformation under anaerobic condition. The drug concentrations were measured over 9 timepoints collected between 0 and 24 hours of incubation by liquid-chromatography-coupled mass spectrometry (LC–MS); settings: 2 µM
[2] = as §1, with “WLS-220” for “WLS-039”, “ERS12561769” for “ERS12561746”; settings: 2 µM
[3] = as §1, with “WLS-170” for “WLS-039”, “ERS12561762” for “ERS12561746”; settings: 2 µM
[4] = human gut metagenome, 24 h, 2 µM
[5] = human gut metagenome, 24 h, 2 µM; remark: listed apart in the source
[6] = human gut metagenome, 24 h, 2 µM; remark: listed apart in the source
[7] = as §1, with “Z-002” for “WLS-039”, “rabbit” for “human”, “ERS12561802” for “ERS12561746”; settings: 2 µM
[8] = as §1, with “Z-019” for “WLS-039”, “rat” for “human”, “ERS12561818” for “ERS12561746”; settings: 2 µM
[9] = as §1, with “Z-016” for “WLS-039”, “mouse” for “human”, “ERS12561815” for “ERS12561746”; settings: 2 µM
[10] = human gut metagenome, 24 h, 2 µM; remark: listed apart in the source
[11] = human gut metagenome, 24 h, 2 µM; remark: listed apart in the source
[12] = human gut metagenome, 24 h, 2 µM; remark: listed apart in the source
[13] = as §1, with “Z-014” for “WLS-039”, “rat” for “human”, “ERS12561814” for “ERS12561746”; settings: 2 µM
[14] = as §1, with “Z-018” for “WLS-039”, “pig” for “human”, “ERS12561817” for “ERS12561746”; settings: 2 µM
[15] = as §1, with “WLS-310” for “WLS-039”, “ERS12561785” for “ERS12561746”; settings: 2 µM
[16] = human gut metagenome, 24 h, 2 µM; remark: listed apart in the source
[17] = human gut metagenome, 24 h, 2 µM; remark: listed apart in the source
[18] = human gut metagenome, 24 h, 2 µM; remark: listed apart in the source
[19] = as §1, with “WLS-082” for “WLS-039”, “ERS12561751” for “ERS12561746”; settings: 2 µM
[20] = as §1, with “Z-011” for “WLS-039”, “mouse” for “human”, “ERS12561811” for “ERS12561746”; settings: 2 µM
Further: call rule not given here.

SMILES	Bacterial Biotransformation [1]	Bacterial Biotransformation [2]	Bacterial Biotransformation [3]	Bacterial Biotransformation [4]	Bacterial Biotransformation [5]	Bacterial Biotransformation [6]	Bacterial Biotransformation [7]	Bacterial Biotransformation [8]	Bacterial Biotransformation [9]	Bacterial Biotransformation [10]	Bacterial Biotransformation [11]	Bacterial Biotransformation [12]	Bacterial Biotransformation [13]	Bacterial Biotransformation [14]	Bacterial Biotransformation [15]	Bacterial Biotransformation [16]	Bacterial Biotransformation [17]	Bacterial Biotransformation [18]	Bacterial Biotransformation [19]	Bacterial Biotransformation [20]
CN1CCC(=C2c3ccccc3CCc3cccnc32)CC1.O=C(O)/C=C\C(=O)O.O=C(O)/C=C\C(=O)O [AZATADINE MALEATE]	Compound NOT metabolized	Compound NOT metabolized	Compound NOT metabolized	Compound NOT metabolized	Compound NOT metabolized	Compound NOT metabolized	Compound NOT metabolized	Compound NOT metabolized	Compound NOT metabolized	Compound NOT metabolized	Compound NOT metabolized	Compound NOT metabolized	Compound NOT metabolized	Compound NOT metabolized	Compound NOT metabolized	Compound NOT metabolized	Compound NOT metabolized	Compound NOT metabolized	Compound NOT metabolized	Compound NOT metabolized
CC(C)NCC(O)COc1ccc(CCOCC2CC2)cc1 (stereo not given) [BETAXOLOL]	Compound NOT metabolized	Compound NOT metabolized	Compound metabolized	Compound NOT metabolized	Compound NOT metabolized	Compound NOT metabolized	Compound metabolized	Compound NOT metabolized	Compound NOT metabolized	Compound NOT metabolized	Compound NOT metabolized	Compound NOT metabolized	Compound NOT metabolized	Compound NOT metabolized	Compound metabolized	Compound NOT metabolized	Compound metabolized	Compound NOT metabolized	Compound NOT metabolized	Compound NOT metabolized
CC(C)(Oc1ccc(CCNC(=O)c2ccc(Cl)cc2)cc1)C(=O)O [BEZAFIBRATE]	Compound metabolized	Compound metabolized	Compound metabolized	Compound metabolized	Compound metabolized	Compound metabolized	Compound metabolized	Compound NOT metabolized	Compound metabolized	Compound NOT metabolized	Compound metabolized	Compound NOT metabolized	Compound NOT metabolized	Compound NOT metabolized	Compound metabolized	Compound metabolized	Compound metabolized	Compound metabolized	Compound metabolized	Compound NOT metabolized
O=C(NCc1ccccc1)OCCO [BURAMATE]	Compound NOT metabolized	Compound NOT metabolized	Compound NOT metabolized	Compound NOT metabolized	Compound NOT metabolized	Compound NOT metabolized	Compound NOT metabolized	Compound NOT metabolized	Compound NOT metabolized	Compound NOT metabolized	Compound NOT metabolized	Compound NOT metabolized	Compound NOT metabolized	Compound NOT metabolized	Compound NOT metabolized	Compound NOT metabolized	Compound NOT metabolized	Compound NOT metabolized	Compound NOT metabolized	Compound NOT metabolized

Other lines, results leading:

Bacterial Biotransformation [1]	Bacterial Biotransformation [2]	Bacterial Biotransformation [3]	Bacterial Biotransformation [4]	Bacterial Biotransformation [5]	Bacterial Biotransformation [6]	Bacterial Biotransformation [7]	Bacterial Biotransformation [8]	Bacterial Biotransformation [9]	Bacterial Biotransformation [10]	Bacterial Biotransformation [11]	Bacterial Biotransformation [12]	Bacterial Biotransformation [13]	Bacterial Biotransformation [14]	Bacterial Biotransformation [15]	Bacterial Biotransformation [16]	Bacterial Biotransformation [17]	Bacterial Biotransformation [18]	Bacterial Biotransformation [19]	Bacterial Biotransformation [20]	SMILES
Compound metabolized	Compound metabolized	Compound metabolized	Compound metabolized	Compound metabolized	Compound metabolized	Compound metabolized	Compound NOT metabolized	Compound metabolized	Compound metabolized	Compound metabolized	Compound NOT metabolized	Compound NOT metabolized	Compound NOT metabolized	Compound metabolized	Compound metabolized	Compound metabolized	Compound metabolized	Compound metabolized	Compound metabolized	CC(=O)OCC(=O)[C@@]1(O)[C@@H](C)C[C@H]2[C@@H]3CCC4=CC(=O)C=C[C@]4(C)[C@@]3(F)[C@@H](O)C[C@@]21C [BETAMETHASONE ACETATE]
Compound metabolized	Compound metabolized	Compound metabolized	Compound metabolized	Compound metabolized	Compound metabolized	Compound metabolized	Compound NOT metabolized	Compound metabolized	Compound NOT metabolized	Compound metabolized	Compound NOT metabolized	Compound NOT metabolized	Compound metabolized	Compound metabolized	Compound metabolized	Compound metabolized	Compound metabolized	Compound metabolized	Compound NOT metabolized	CCN(CC)CCOCCOC(=O)C1(c2ccccc2)CCCC1.O=C(O)CC(O)(CC(=O)O)C(=O)O [CARBETAPENTANE CITRATE]
Compound metabolized	Compound metabolized	Compound metabolized	Compound metabolized	Compound metabolized	Compound metabolized	Compound metabolized	Compound NOT metabolized	Compound metabolized	Compound metabolized	Compound metabolized	Compound metabolized	Compound NOT metabolized	Compound NOT metabolized	Compound metabolized	Compound metabolized	Compound metabolized	Compound metabolized	Compound metabolized	Compound NOT metabolized	O=C(O)COCCN1CCN(C(c2ccccc2)c2ccc(Cl)cc2)CC1 (stereo not given) [CETIRIZINE]
